SMILES strings stand for the structures. Converted amounts (≈) assume the structure as drawn.

For data set [1] the following is noted: ref our previous work; cited from earlier work.
The nature of data set [2]: in vitro. As to conditions: plasma.
A further data set has as its system PC12-G93A-YFP cell line. The experiment in a line: cytotoxicity protection assay against mutant SOD1-induced cytotoxicity. Type of data set: cell-based. As to conditions: read-out: Potency (EC50).
Data set [3] in a line: in vitro. As to conditions: mouse, microsomes.

As a reminder, the solubility is the concentration that dissolves in the medium under given conditions. Low values mean little dissolved substance, high ones much dissolved substance. Usually half-life stands for the time in which the quantity being followed falls by half. The term EC50 denotes the midpoint of the concentration-response curve. Turning to `O=C1CC(=O)N(CCc2ccccc2)C(=O)N1CCc1ccccc1` [Compound 1, 1,3-bis(2-phenylethyl)pyrimidine-2,4,6(1H,3H,5H)-trione], the maximum tolerated dose in data set [1] was 100 mg/kg. For the same compound, in the data set “physchem”, the concentration in solution (solubility) came to 31.3 µM (≈ 10.5 µg/mL). The half-life in the data set “in vitro [2]” was found to be 63.5 min; in the data set “in vitro [3]”, 16 min. In the data set with PC12-G93A-YFP cell line, the EC50 was 1.68 µM.

Source of the values: article PMC4250310 (Bioorganic & medicinal chemistry letters, 2014).
